Measurements from patent US11370774B2, “Substituted benzofuran, benzopyrrole, benzothiophene, and structurally related complement inhibitors” (BioCryst Pharmaceuticals, Inc., priority 2018, dated 2022).

What follows are compounds tested against Factor D (Homo sapiens (Human), UniProt P00746) (assay: Factor D esterolytic assay (Z-Lys-SBzl substrate, DTNB, 405 nm)). Details: Z-Lys-SBzl 1.29 mM, pH 7.5, 10% DMSO, tested a minimum of three times, read-out: Measured Ki (IC50) Value for Compounds: IC50.
Chain of Factor D (P00746 26-253): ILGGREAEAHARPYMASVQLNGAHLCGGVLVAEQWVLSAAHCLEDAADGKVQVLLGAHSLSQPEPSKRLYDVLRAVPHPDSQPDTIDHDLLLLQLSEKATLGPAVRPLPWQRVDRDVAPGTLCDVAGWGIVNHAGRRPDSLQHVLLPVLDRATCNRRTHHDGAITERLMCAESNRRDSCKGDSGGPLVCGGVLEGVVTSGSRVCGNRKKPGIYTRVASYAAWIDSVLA
Format: biochemical
Summary of the method: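 Thioester hydrolysis (Z-Lys-SBzl, 1.29 mM) by human Factor D ([…]) detected through DTNB color at 405 nm over 600 sec, minus 690 nm background. Buffer: 100 mM HEPES pH 7.5, 500 mM NaCl, 10% DMSO; optional room-temperature preincubation before substrate. IC50 derived from percent rate inhibition; at least three runs.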

| SMILES | IC50 |
| --- | --- |
| NCc1nccc(-c2cc(COc3ccccc3CC(=O)O)cc3sc(Cl)cc23)c1F [Compound 338c, 2-(2-((4-(2-(aminomethyl)-3-fluoropyridin-4-yl)-2-chlorobenzo[b]thiophen-6-yl)methoxy)phenyl)acetic acid] | < 1 µM |
| COc1ccc(-c2ccc(CC(=O)O)c(OCc3cc(-c4cccc(CN)c4)c4occc4c3)c2)c(F)c1 [Compound 397e, 2-(3-((7-(3-(aminomethyl)phenyl)benzofuran-5-yl)methoxy)-2′-fluoro-4′-methoxy-[1,1′-biphenyl]-4-yl)acetic acid] | < 1 µM |
| COCc1cc2cc(COc3cc(CN)ccc3CC(=O)O)cc(-c3cccc(CN)c3F)c2o1 [Compound 440c, 2-(4-(aminomethyl)-2-((7-(3-(aminomethyl)-2-fluorophenyl)-2-(methoxymethyl)benzofuran-5-yl)methoxy)phenyl)acetic acid] | < 1 µM |
| COc1c(C(=O)Nc2ccccc2CC(=O)O)cc(-c2ccnc(CN)c2F)c2occc12 [Compound 334d, 2-(2-(7-(2-(aminomethyl)-3-fluoropyridin-4-yl)-4-methoxybenzofuran-5-carboxamido)phenyl)acetic acid] | 1 to 10 µM |
| CS(=O)(=O)n1ccc2c(-c3cccc(CN)c3F)cc(COc3ccccc3CC(=O)O)cc21 [Compound 198b, 2-(2-((4-(3-(aminomethyl)-2-fluorophenyl)-1-(methylsulfonyl)-1H-indol-6-yl)methoxy)phenyl)acetic acid] | < 1 µM |
| NCc1cccc(-c2nc(C(=O)Nc3ccsc3CC(=O)O)cc3ccoc23)c1 [Compound 147c, 2-(3-(7-(3-(aminomethyl)phenyl)furo[2,3-c]pyridine-5-carboxamido)thiophen-2-yl)acetic acid] | < 1 µM |
| NCc1cccc(-c2cc(C(=O)Nc3ccccc3CC(=O)O)cc3c2ccn3CC2CC2)c1 [Compound 44c, 2-(2-(4-(3-(aminomethyl)phenyl)-1-(cyclopropylmethyl)-1H-indole-6-carboxamido)phenyl)acetic acid] | < 1 µM |
| NCc1cccc(-c2cc(C(=O)Nc3ccccc3CC(=O)O)cc3[nH]ccc23)c1F [Compound 37c, 2-(2-(4-(3-(aminomethyl)-2-fluorophenyl)-1H-indole-6-carboxamido)phenyl)acetic acid] | < 1 µM |
| NCc1nccc(-c2cc(COc3ccccc3CC(=O)O)cc3c2ccn3C(F)(F)F)c1F [Compound 533c, 2-(2-((4-(2-(aminomethyl)-3-fluoropyridin-4-yl)-1-(trifluoromethyl)-1H-indol-6-yl)methoxy)phenyl)acetic acid] | < 1 µM |
| NCc1cccc(-c2cc(COc3cc(-c4ccccc4)ccc3CC(=O)O)cc3ccoc23)c1F [Compound 391f, 2-(3-((7-(3-(aminomethyl)-2-fluorophenyl)benzofuran-5-yl)methoxy)-[1,1′-biphenyl]-4-yl)acetic acid] | < 1 µM |
| CC(C)n1ccc2c(-c3cccc(CN)c3F)cc(COc3ccc(F)cc3CC(=O)O)cc21 [Compound 494b, 2-(2-((4-(3-(aminomethyl)-2-fluorophenyl)-1-isopropyl-1H-indol-6-yl)methoxy)-5-fluorophenyl)acetic acid] | < 1 µM |
| COc1ccc(CC(=O)O)c(OCc2cc(-c3cccc(CN)c3F)c3occ(C(F)(F)F)c3c2)c1 [Compound 489b, 2-(2-((7-(3-(aminomethyl)-2-fluorophenyl)-3-(trifluoromethyl)benzofuran-5-yl)methoxy)-4-methoxyphenyl)acetic acid] | < 1 µM |
| NCc1cccc(-c2nc(C(=O)Nc3ccccc3CC(=O)O)nc3sccc23)c1 [Compound 32h, 2-(2-(4-(3-(aminomethyl)phenyl)thieno[2,3-d]pyrimidine-2-carboxamido)phenyl)acetic acid] | < 1 µM |
| CCc1ccc(CC(=O)O)c(OCc2cc(-c3ccnc(CN)c3)c3oc(F)cc3c2)c1 [Compound 390c, 2-(2-((7-(2-(aminomethyl)pyridin-4-yl)-2-fluorobenzofuran-5-yl)methoxy)-4-ethylphenyl)acetic acid] | < 1 µM |
| NCc1nccc(-c2cc(COc3ccccc3CC(=O)O)cc3c(C(F)(F)F)coc23)c1F [Compound 181d, 2-(2-((7-(2-(aminomethyl)-3-fluoropyridin-4-yl)-3-(trifluoromethyl)benzofuran-5-yl)methoxy)phenyl)acetic acid] | < 1 µM |
| NCc1cccc(-c2cc(C(=O)Nc3ccccc3CC(=O)O)cn3ccnc23)c1 [Compound 125c, 2-(2-(8-(3-(aminomethyl)phenyl)imidazo[1,2-a]pyridine-6-carboxamido)phenyl)acetic acid] | > 10 µM |
| NCc1cccc(-c2cc(COc3cc(-c4ccc(C(=O)O)s4)ccc3CC(=O)O)cc3ccoc23)c1 [Compound 325a, 5-(3-((7-(3-(aminomethyl)phenyl)benzofuran-5-yl)methoxy)-4-(carboxymethyl)phenyl)thiophene-2-carboxylic acid] | < 1 µM |
| COCCOCCOCCOCc1cc2cc(COc3ccccc3CC(=O)O)cc(-c3cccc(CN)c3)c2o1 [Compound 344f, 2-(2-((7-(3-(aminomethyl)phenyl)-2-(2,5,8,11-tetraoxadodecyl)benzofuran-5-yl)methoxy)phenyl)acetic acid] | < 1 µM |
| NC(CF)c1cc(-c2cc(COc3ccccc3CC(=O)O)cc3ccoc23)ccn1 (single isomer, unassigned; (-)) [Compound 326g, (−)-2-(2-((7-(2-(1-amino-2-fluoroethyl)pyridin-4-yl)benzofuran-5-yl)methoxy)phenyl)acetic acid] | 1 to 10 µM |
| Cc1ccc(CC(=O)O)c(OCc2cc(-c3ccnc(CN)c3)c3ccn(C)c3c2)c1 [Compound 367c, 2-(2-((4-(2-(aminomethyl)pyridin-4-yl)-1-methyl-1H-indol-6-yl)methoxy)-4-methylphenyl)acetic acid] | < 1 µM |

Results, then the compound that gave them:

| IC50 | SMILES |
| --- | --- |
| < 1 µM | NCc1cccc(-c2cc(COc3ccccc3CC(=O)O)cc3occc23)c1 [Compound 115f, 2-(2-((4-(3-(aminomethyl)phenyl)benzofuran-6-yl)methoxy)phenyl)acetic acid] |
| < 1 µM | NCc1cccc(-c2cc(COc3ccc4ccccc4c3CC(=O)O)cc3ccoc23)c1 [Compound 400e, 2-(2-((7-(3-(aminomethyl)phenyl)benzofuran-5-yl)methoxy)naphthalen-1-yl)acetic acid] |
| < 1 µM | Cc1ccc(CC(=O)O)c(OCc2cc(-c3cccc(CN)c3)c3oc(CO)cc3c2)c1 [Compound 420e, 2-(2-((7-(3-(aminomethyl)phenyl)-2-(hydroxymethyl)benzofuran-5-yl)methoxy)-4-methylphenyl)acetic acid] |
| < 1 µM | NCc1cc(-c2cc(COc3ccccc3CC(=O)O)cc3cc(C(F)(F)F)oc23)ccn1 [Compound 226c, 2-(2-((7-(2-(aminomethyl)pyridin-4-yl)-2-(trifluoromethyl)benzofuran-5-yl)methoxy)phenyl)acetic acid] |
| < 1 µM | Cc1cc2cc(COc3ccccc3CC(=O)O)cc(-c3cccc(CN)c3F)c2o1 [Compound 92b, 2-(2-((7-(3-(aminomethyl)-2-fluorophenyl)-2-methylbenzofuran-5-yl)methoxy)phenyl)acetic acid] |
| < 1 µM | CNCc1cc2cc(COc3ccccc3CC(=O)O)cc(-c3cccc(CN)c3)c2o1 [Compound 138f, 2-(2-((7-(3-(aminomethyl)phenyl)-2-((methylamino)methyl)benzofuran-5-yl)methoxy)phenyl)acetic acid] |
| < 1 µM | NCc1cccc(-c2cc(COc3cccc(C(F)(F)F)c3CC(=O)O)cc3ccoc23)c1 [Compound 282f, 2-(2-((7-(3-(aminomethyl)phenyl)benzofuran-5-yl)methoxy)-6-(trifluoromethyl)phenyl)acetic acid] |
| < 1 µM | NCc1cccc(-c2cc(COc3ccccc3CC(=O)O)cc3cc(C4CC4)oc23)c1 [Compound 55g, 2-(2-((7-(3-(aminomethyl)phenyl)-2-cyclopropylbenzofuran-5-yl)methoxy)phenyl)acetic acid] |
| < 1 µM | COc1ccc(OCc2cc(-c3cccc(CN)c3)c3occc3c2)c(CC(=O)O)c1 [Compound 350e, 2-(2-((7-(3-(aminomethyl)phenyl)benzofuran-5-yl)methoxy)-5-methoxyphenyl)acetic acid] |
| < 1 µM | Cc1cccc(OCc2cc(-c3cccc(CN)c3)c3occc3c2)c1CC(=O)O [Compound 314f, 2-(2-((7-(3-(aminomethyl)phenyl)benzofuran-5-yl)methoxy)-6-methylphenyl)acetic acid] |
| > 10 µM | Nc1nccc2ccc(-c3cc(COc4ccccc4CC(=O)O)cc4ccoc34)cc12 [Compound 87c, 2-(2-((7-(1-aminoisoquinolin-7-yl)benzofuran-5-yl)methoxy)phenyl)acetic acid] |
| < 1 µM | Cc1cc2cc(COc3cc(CN)ccc3CC(=O)O)cc(-c3cccc(CN)c3)c2o1 [Compound 257k, 2-(4-(aminomethyl)-2-((7-(3-(aminomethyl)phenyl)-2-methylbenzofuran-5-yl)methoxy)phenyl)acetic acid] |
| < 1 µM | Cc1ccc(CC(=O)O)c(OCc2cc(-c3cccc(CN)c3)c3ccn(C(C)C)c3c2)c1 [Compound 352c, 2-(2-((4-(3-(aminomethyl)phenyl)-1-isopropyl-1H-indol-6-yl)methoxy)-4-methylphenyl)acetic acid] |
| < 1 µM | NCc1nccc(-c2cc(COc3ccccc3CC(=O)O)cc3[nH]ccc23)c1F [Compound 12c, 2-(2-((4-(2-(aminomethyl)-3-fluoropyridin-4-yl)-1H-indol-6-yl)methoxy)phenyl)acetic acid] |
| < 1 µM | NCc1cccc(-c2cc(COc3cc4ccccc4cc3CC(=O)O)cc3ccoc23)c1 [Compound 401e, 2-(3-((7-(3-(aminomethyl)phenyl)benzofuran-5-yl)methoxy)naphthalen-2-yl)acetic acid] |
| < 1 µM | NCc1cccc(-c2cc(COc3ccccc3CC(=O)O)cc3nc[nH]c23)c1 [Compound 167e, 2-(2-((7-(3-(aminomethyl)phenyl)-1H-benzo[d]imidazol-5-yl)methoxy)phenyl)acetic acid] |
